Tests used:
[1] = system: HCT-116 colon cancer cell lines; test: Matrigel Invasion Assay on HCT-116 colon cancer cell line; format: cell-based, human; conditions: HCT-116, Matrigel, 24 hours treatment, vs DMSO
Protocol: To evaluate the metastasis inhibitory efficacy of the compounds of the present invention on HCT-116 colon cancer cell lines, an Invasion Assay using Matrigel was performed to assess the cells' invasion ability.
First, Matrigel was thawed on ice in RPMI-1640 medium without FBS, then diluted with DMEM at a ratio of 1:20.
The diluted Matrigel mixture was applied to the upper chamber at 100 μl per well, and 750 μl of RPMI-1640 without FBS was added to the lower chamber.
The plates were then incubated at 37° C. for 1 hour to allow the Matrigel to solidify.
After coating, the Matrigel mixture in the upper chamber was removed using a pipette, and the chamber was washed with RPMI without FBS.
Human-derived colorectal cancer cell line HCT-116, obtained from the Korean Cell Bank, was cultured in RPMI-1640 medium containing 10% FBS.
Following stabilization, the cells were harvested using Trypsin-EDTA treatment, centrifuged at 1,200 rpm for 3 minutes, the supernatant was removed, and the cells were resuspended in the same medium, the medium in the lower chamber was replaced with 750 μl of RPMI-1640 supplemented with 10% FBS, and the cells were seeded into the upper chamber at a density of 5×10^4 cells/well.
The cells were cultured for 24 hours after attachment, and then the compounds according to the present invention (G078, G085, G086, G088, G089, PBK-2024-010, PBK-2025-010, PBK-2025-013, PBK-2025-016) and the control substance DMSO were diluted and added to the upper chamber after removing the medium.
Additionally, the medium in the lower chamber was replaced with fresh RPMI-1640 containing FBS, and the culture was continued.
After an additional 24 hours, the medium was removed, and 1 ml of methanol was added for 10 minutes to fix the cells.
Subsequently, 1 ml of Hematoxylin was added and reacted for 5 minutes, followed by 1 ml of Eosin, which was reacted for 30 seconds. The sample was then washed with distilled water (DW).
After staining was complete, any remaining cells in the upper chamber were removed. Finally, the infiltrated cells were observed under a microscope, photographed, and the degree of infiltration was analyzed.

[2] = system: T cells isolated from mouse spleens; test: T cell proliferation inhibition (CFSE flow cytometry, anti-CD3/anti-CD28 stimulation); format: cell-based, C57BL/6 mice; conditions: three days
Protocol: To verify the T cell proliferation inhibitory effect of the compounds according to the present invention, the following experiment was performed based on flow cytometry analysis using carboxyfluorescein diacetate succinimidyl ester (CFSE), a fluorescent dye that binds to intracellular molecules via covalent bonds.
Spleens were extracted from 7-week-old C57BL/6 mice, ground, and then separated into single cells using a strainer (40 μm pore size, SPL). Red blood cells were removed using ACK (Ammonium-Chloride-Potassium) lysis buffer to isolate white blood cells.
Finally, using a MACS Magnetic Stand and LS column, T cells were isolated from the spleen.
The T cells isolated from the spleen were resuspended in 1 mL of free medium (RPMI-1640+200 U/mL penicillin+200 μg/mL streptomycin), and 0.3 μL of CFSE (10 mM) was added. The mixture was incubated at 37° C. for 5 minutes.
Free medium (10 mL) was added to stop the reaction, and the cells were centrifuged to obtain the cell pellet.
RPMI 1640 medium containing 10% FBS, 100 U/mL penicillin, 100 μg/mL streptomycin, and resuspended the cells. The cells were then seeded into a 96-well plate at a density of 2× 10^5 cells per well and activated with CD3 and CD28 antibodies (0.5 μg/mL each) to activate T cells.
The compound diluted in DMSO was added at concentrations of 10 nM, 100 nM, 1 μM, 10 μM, 30 μM, and 50 μM, with three wells per concentration, and cultured at 37° C. and 5% CO2 for three days. The cells were then analyzed using a FACS Canto instrument.
The proliferation inhibition rate (%) was calculated using the following formula: […]

[3] = system: Human B Lymphocyte cell line, SU-DHL-8; test: Relative cell viability, SU-DHL-8 (CCK-8); format: cell-based; conditions: 48 hours, untreated (DMSO) = 100%
Protocol: Human-derived B lymphoma cell line SU-DHL-8 (Cat. #CRL-2961) purchased from ATCC was cultured in RPMI-1640 medium containing 10% FBS, 100 U/mL penicillin, and 100 μg/mL streptomycin.
The cell culture medium was then harvested, centrifuged at 1,300 rpm for 5 minutes, and the supernatant was removed. The cells were resuspended in the same medium and dispensed into a 96-well plate (Costar 96-well cell culture plate, Corning) at 90 μL per well, resulting in the conditions specified in Table 5.
Then, 10 μL of CCK-8 was added to each well, and the plates were incubated again at 37° C. in a 5% CO2 incubator for 4 hours.
In other words, when the survival rate of untreated cells (DMSO) is set at 100%, the relative cell survival rate in each group treated with the drug at different concentrations is indicated.

Row | Molecule | number of infiltrated cells (invasion) [1] | Proliferation inhibition rate (%) ([2]; concentration 1 μM) | Proliferation inhibition rate (%) ([2]; concentration 10 μM) | Proliferation inhibition rate (%) ([2]; concentration 30 μM) | Proliferation inhibition rate (%) ([2]; concentration 50 μM) | Relative cell viability (%) ([3]; SU-DHL-8, 1 μM) | Relative cell viability (%) ([3]; SU-DHL-8, 10 μM) | Relative cell viability (%) ([3]; SU-DHL-8, 30 μM) | Relative cell viability (%) ([3]; SU-DHL-8, 50 μM) | Proliferation inhibition rate (%) ([2]; concentration 100 nM) | Proliferation inhibition rate (%) ([2]; concentration 10 nM)
1 | Nc1ncccc1C(=O)NCCCCCCCCCCCCN1CCNCC1 [Compound 5, 2-Amino-N-(12-(piperazin-1-yl)dodecyl)-nicotinamide] | reduction in the number of infiltrated cells |  |  |  |  |  |  |  |  |  | 
2 | Nc1ncccc1C(=O)NCCCCCCCCCCCCN1CCS(=O)(=O)CC1 [Compound 25, 2-Amino-N-(12-(1,1-dioxidothiomorpholino)dodecyl) nicotinamide] |  | 100.00 | 100.00 | 100.00 | 100.00 | 9.73 | 1.26 | 0.11 | 0.95 |  | 
3 | Nc1ncccc1C(=O)NCCCCCCCCCCCCN1CC(F)C1 [Compound 52, 2-Amino-N-(12-(3-fluoroazetidin-1-yl)dodecyl)nicotinamide] | reduction in the number of infiltrated cells |  |  |  |  |  |  |  |  |  | 
4 | Nc1ncccc1C(=O)NCCCCCCCCCCCCN1CCC(F)C1 (stereo not shown) [Compound 26, 2-Amino-N-(12-(3-fluoropyrrolidin-1-yl)dodecyl) nicotinamide] |  | 100.00 | 100.00 | 100.00 | 100.00 | 1.70 | 1.04 | 0.05 |  | 100.00 | 
5 | 12-(4-hydroxypiperazin-1-yl)dodecyl-N-(6-aminopurazin-2-yl) carboxamide [Compound 10] | reduction in the number of infiltrated cells | 100.00 | 100.00 | 100.00 | 100.00 |  |  |  |  | 100.00 | 100.00
6 | Cl.Nc1ncccc1C(=O)NCCCCCCCCCCCCN1CC[C@H](N)C1 [Compound 50, (S)-2-Amino-N-(12-(3-aminopyrrolidin-1-yl)dodecyl) nicotinamide hydrochloride] |  | 100.00 | 100.00 | 100.00 | 100.00 | 9.20 | 8.18 | 6.18 | 4.31 | 100.00 | 
7 | Nc1ncccc1C(=O)NCCCCCCCCCCCCN1CCC(Oc2ccncc2)CC1 [Compound 38, 2-Amino-N-(12-(4-(pyridin-4-yloxy)piperidin-1-yl)dodecyl) nicotinamide] |  | 100.00 | 100.00 | 100.00 | 100.00 | 4.16 | 3.30 | 1.79 | 1.42 | 100.00 | 
8 | O=C(NCCCCCCCCCCCCN1CCN2CCCC2C1)c1cccnc1 (stereo not shown) [Compound 23, N-(12-(hexahydropyrrolo[1,2-a]pyrazin-2 (1H)-yl)dodecyl) nicotinamide] | reduction in the number of infiltrated cells |  |  |  |  |  |  |  |  |  | 
9 | CC1CNCCN1CCCCCCCCCCCCNC(=O)c1cccnc1N (stereo not shown) [Compound 35, 2-Amino-N-(12-(2-methylpiperazin-1-yl)dodecyl) nicotinamide] |  | 100.00 | 100.00 | 100.00 | 100.00 | 1.18 | 0.64 | 0.42 |  | 100.00 | 
10 | CC(C)(C)OC(=O)N[C@H]1CCN(CCCCCCCCCCCCNC(=O)c2cccnc2N)C1 [Compound 49, tert-Butyl(S)-(1-(12-(2-aminonicotinamido)dodecyl)pyrrolidin-3-yl) carbamate] | reduction in the number of infiltrated cells | 100.00 | 100.00 | 100.00 | 100.00 | 8.93 | 8.02 | 7.48 | 4.09 | 100.00 | 
11 | Nc1ncccc1C(=O)NCCCCCCCCCCCCN1CC=CC1 [Compound 129, 2-amino-N-(12-(2,5-dihydro-1H-pyrrol-1-yl)dodecyl) nicotinamide] |  | 100.00 | 100.00 | 100.00 | 100.00 | 34.26 | 33.99 | 35.05 | 34.27 | 90.00 | 0.00
12 | CC1(C)CCN(CCCCCCCCCCCCNC(=O)c2cccnc2N)C1 [Compound 22, 2-Amino-N-(12-(3,3-dimethylpyrrolidin-1-yl)dodecyl) nicotinamide] |  | 100.00 | 100.00 | 100.00 | 100.00 | 6.46 | 2.85 | 2.45 | 1.67 | 100.00 | −0.80
13 | CC1CCCN(CCCCCCCCCCCCNC(=O)c2cccnc2N)CC1 (stereo not shown) [Compound 39, 2-Amino-N-(12-(4-methylazepan-1-yl)dodecyl) nicotinamide] |  | 100.00 | 100.00 | 100.00 | 100.00 | 11.48 | 8.41 | 6.24 | 4.27 | 100.00 | 
14 | Cc1ccc(C2CCN(CCCCCCCCCCCCNC(=O)c3cccnc3N)CC2)cc1 [Compound 55, 2-Amino-N-(12-(4-(p-tolyl)piperidin-1-yl)dodecyl) nicotinamide] |  | 100.00 | 100.00 | 100.00 | 100.00 | 9.36 | 4.92 | 1.10 | 0.97 | 100.00 | 

Source: patent US20260183302A1, “PDK1 REGULATORY COMPOUND AND COMPOSITION CONTAINING THE SAME” (PROVIBIO CO., LTD., priority 2024, published 2026)
